Where a name gives a salt, the structure may show the parent alone.
Experiments:
[1] = test system: cellular p-ERK in HCT116 human colorectal carcinoma / A375 human malignant melanoma cell lines; assay: Phospho-ERK cell-based assay (ELISA), Example 4; conditions: in either one of the cell lines (HCT116, A375), 2 h or 24 h exposure
Description: Example 4 Phospho-ERK Cell-Based Assay
Compounds are tested in a cell-based phospho-ERK ELISA using the following cell lines:
HCT116 human colorectal carcinoma (ATCC)
(§1) A375 human malignant melanoma (ATCC)
(§2) Both cell lines are maintained in DMEM/F12 (1:1) media (Gibco) supplemented with 10% FCS at 37° C. in a 5% CO2 humidified incubator.
Cells are seeded in 96-well plates at 2,000 cells/well and after 24 h they are exposed to different concentrations of compounds in 0.83% DMSO. Cells are grown for a further 2 h or 24 h, fixed with formaldehyde (2% final) and permeabilised with methanol. Following blocking with TBST-3% BSA, fixed cells are incubated with primary antibody (anti-phospho ERK from rabbit) over-night at 4° C. Cells are incubated with Propidium Iodide (DNA fluorescent dye) and detection of cellular p-ERK is performed using an anti-rabbit secondary antibody conjugated to the fluorescent Alexa Fluor 488 dye (Molecular probes). The fluorescence is analysed using the Acumen Explorer (TTP Labtech), a laser-scanning microplate cytometer, and the Alexa Fluor 488 signal is normalised to the PI signal (proportional to cell number).
The EC50 is defined as the concentration at which a given compound achieves a signal half way between the baseline and the maximum response. EC50 values are calculated using the XLfit software package (version 2.0.5).

[2] = test system: HCT 116 human colorectal carcinoma / A375 human malignant melanoma cell lines; assay: Cell proliferation assay (CellTiter-Glo), Example 3; format: cell-based; conditions: in either one of the cell lines (HCT 116, A375), 72 h
Description: Example 3 Cell Proliferation Assay
Compounds are tested in a cell proliferation assay using the following cell lines:
HCT 116 human colorectal carcinoma (ATCC)
as §1, §2
Cells are seeded in 96-well plates at 2,000 cells/well and after 24 hours they are exposed to different concentrations of compounds in 0.83% DMSO. Cells are grown for a further 72 h, and an equal volume of CellTiter-Glo reagent (Promega) is added to each well. This lyses the cells and generates a luminescent signal proportional to the amount of ATP released (and therefore proportional to the number of cells in the well) that can be detected using a multiwell luminometer.
EC50 values are calculated using the XLfit software package (version 2.0.5).

`O=C(NOC[C@H](O)CO)c1oc2ccncc2c1Nc1ccc(I)cc1F` [Example 5, 3-(2-Fluoro-4-iodo-phenylamino)-furo[3,2-c]pyridine-2-carboxylic acid ((R)-2,3-dihydroxy-propoxy)-amide] showed an EC50 [1] of less than 10 µM and an EC50 [2] of less than 10 µM.
For `O=C(NOC[C@H](O)CO)c1oc2ccncc2c1Nc1ccc(Br)cc1F` [Example 6, 3-(2-Fluoro-4-bromo-phenylamino)-furo[3,2-c]pyridine-2-carboxylic acid ((R)-2,3-dihydroxy-propoxy)-amide], the EC50 [1] was less than 10 µM and the EC50 [2] was less than 10 µM.
`C#Cc1ccc(Nc2c(C(=O)NOC[C@H](O)CO)oc3ccncc23)c(F)c1` [Example 7, 3-(4-Ethynyl-2-fluoro-phenylamino)-furo[3,2-c]pyridine-2-carboxylic acid ((R)-2,3-dihydroxy-propoxy)-amide] showed an EC50 [1] of less than 10 µM and an EC50 [2] of less than 10 µM.
`O=C(NOCC1CC1)c1oc2ccncc2c1Nc1ccc(I)cc1F` [Example 8, 3-(2-Fluoro-4-iodo-phenylamino)-furo[3,2-c]pyridine-2-carboxylic acid cyclopropylmethoxy-amide] gave an EC50 [1] of less than 10 µM and an EC50 [2] of less than 10 µM.
Work on `O=C(NOC[C@H](O)CO)c1oc2cnccc2c1Nc1ccc(I)cc1F` [Example 9, 3-(2-Fluoro-4-iodo-phenylamino)-furo[2,3-c]pyridine-2-carboxylic acid ((R)-2,3-dihydroxy-propoxy)-amide] yielded an EC50 [1] of less than 10 µM and an EC50 [2] of less than 10 µM.
`O=C(NOCCO)c1oc2ccncc2c1Nc1ccc(I)cc1F` [Example 10, 3-(2-Fluoro-4-iodo-phenylamino)-furo[3,2-c]pyridine-2-carboxylic acid (2-hydroxy-ethoxy)-amide] was tested, and the EC50 [1] was less than 10 µM and the EC50 [2] was less than 10 µM.
With `C=COCCONC(=O)c1oc2ccncc2c1Nc1ccc(I)cc1F` [Example 11, 3-(2-Fluoro-4-iodo-phenylamino)-furo[3,2-c]pyridine-2-carboxylic acid (2-vinyloxy-ethoxy)-amide] the EC50 [1] was less than 10 µM and the EC50 [2] was less than 10 µM.
In the case of `O=C(NOC[C@H](O)CO)c1oc2ccncc2c1Nc1ccc(I)cc1` [Example 12, 3-(4-Iodo-phenylamino)-furo[3,2-c]pyridine-2-carboxylic acid ((R)-2,3-dihydroxy-propoxy)-amide], the EC50 [1] is reported as less than 10 µM and the EC50 [2] is reported as less than 10 µM.
In the case of `O=C(NOC[C@H](O)CO)c1oc2ccncc2c1Nc1ccc(I)cc1Cl` [Example 13, 3-(2-Chloro-4-iodo-phenylamino)-furo[3,2-c]pyridine-2-carboxylic acid ((R)-2,3-dihydroxy-propoxy)-amide], the EC50 [1] is reported as less than 10 µM and the EC50 [2] is reported as less than 10 µM.
For `O=C(NOC[C@H](O)CO)c1oc2ccncc2c1Nc1cc(F)c(I)cc1F` [Example 15, 3-(2,5-Difluoro-4-iodo-phenylamino)-furo[3,2-c]pyridine-2-carboxylic acid ((R)-2,3-dihydroxy-propoxy)-amide], the EC50 [1] was less than 10 µM and the EC50 [2] was less than 10 µM.
For `CC(C)(C)OC(=O)N1CCC(ONC(=O)c2oc3ccncc3c2Nc2ccc(I)cc2F)CC1` [Example 16, 4-{[3-(2-Fluoro-4-iodo-phenylamino)-furo[3,2-c]pyridine-2-carbonyl]aminooxy}-piperidine-1-carboxylic acid tert-butyl ester], the EC50 [1] was less than 10 µM and the EC50 [2] was less than 10 µM.
`O=C(NOC[C@H](O)CO)c1oc2c(Br)cncc2c1Nc1ccc(I)cc1F` [Example 18, 7-Bromo-3-(2-fluoro-4-iodo-phenylamino)-furo[3,2-c]pyridine-2-carboxylic acid ((R)-2,3-dihydroxy-propoxy)amide] was tested, and the EC50 [1] was less than 10 µM and the EC50 [2] was less than 10 µM.
`O=C(NOC1CCNCC1)c1oc2ccncc2c1Nc1ccc(I)cc1F` [Example 20, 3-(2-Fluoro-4-iodo-phenylamino)-furo[3,2-c]pyridine-2-carboxylic acid (piperidin-4-yloxy)-amide mono formate salt] showed an EC50 [1] of less than 10 µM and an EC50 [2] of less than 10 µM.
`NC(=O)c1oc2ccncc2c1Nc1ccc(I)cc1F` [Example 21, 3-(2-Fluoro-4-iodo-phenylamino)-furo[3,2-c]pyridine-2-carboxylic acid amide] gave an EC50 [1] of less than 10 µM and an EC50 [2] of less than 10 µM.
For `CN(c1ccc(I)cc1F)c1c(C(=O)NOCCO)oc2ccncc12` [Example 22, 3-[(2-Fluoro-4-iodo-phenyl)-methyl-amino]-furo[3,2-c]pyridine-2-carboxylic acid (2-hydroxy-ethoxy)-amide], the EC50 [1] was less than 10 µM and the EC50 [2] was less than 10 µM.
Work on `O=C(NO)c1oc2ccncc2c1Nc1ccc(I)cc1F` [Example 24, 3-(2-Fluoro-4-iodo-phenylamino)-furo[3,2-c]pyridine-2-carboxylic acid hydroxyamide] yielded an EC50 [1] of less than 10 µM and an EC50 [2] of less than 10 µM.
Compound `O=C(c1oc2ccncc2c1Nc1ccc(I)cc1F)N1CC[C@H](O)[C@H]1CO` [Example 131, (3-(2-fluoro-4-iodophenylamino)furo[3,2-c]pyridin-2-yl)((2R,3S)-3-hydroxy-2-(hydroxymethyl)pyrrolidin-1-yl)methanone] has an EC50 [1] of less than 10 µM.
`O=C(NOCCO)c1oc2c(F)cncc2c1Nc1ccc(I)cc1F` [Example 139, 7-Fluoro-3-(2-fluoro-4-iodo-phenylamino)-furo[3,2-c]pyridine-2-carboxylic acid (2-hydroxy-ethoxy)-amide] showed an EC50 [1] of less than 10 µM.
Compound `Cc1nccc2oc(C(=O)NOCCO)c(Nc3ccc(I)cc3F)c12` [Example 144, 3-(2-Fluoro-4-iodo-phenylamino)-methyl-furo[3,2-c]pyridine-2-carboxylic acid (2-hydroxy-ethoxy)-amide] has an EC50 [1] of less than 10 µM.
Work on `O=C(NOCCO)c1oc2ccnc(Cl)c2c1Nc1ccc(I)cc1F` [Example 147, 4-Chloro-3-(2-fluoro-4-iodo-phenylamino)-furo[3,2-c]pyridine-2-carboxylic acid (2-hydroxy-ethoxy)-amide] yielded an EC50 [1] of less than 10 µM.
For `CSc1ccc(Nc2c(C(=O)NOCCO)oc3c(Cl)cncc23)c(F)c1` [Example 152, 7-Chloro-3-(2-fluoro-4-methylsulfanyl-phenylamino)-furo[3,2-c]pyridine-2-carboxylic acid (2-hydroxy-ethoxy)-amide], the EC50 [1] was less than 10 µM.
For `C[C@H](O)CONC(=O)c1oc2c(F)cncc2c1Nc1ccc(I)cc1F` [Example 155, 7-Fluoro-3-(2-fluoro-4-iodo-phenylamino)-furo[3,2-c]pyridine-2-carboxylic acid ((S)-2-hydroxy-propoxy)-amide], the EC50 [1] was less than 10 µM.
Work on `CC(C)(CO)ONC(=O)c1oc2c(F)cncc2c1Nc1ccc(I)cc1F` [Example 156, 7-Fluoro-3-(2-fluoro-4-iodo-phenylamino)-furo[3,2-c]pyridine-2-carboxylic acid (2-hydroxy-1,1-dimethyl-ethoxy)-amide] yielded an EC50 [1] of less than 10 µM.
`O=C(c1oc2c(F)cncc2c1Nc1ccc(I)cc1F)N1CC[C@@H](O)C1` [Example 157, [7-Fluoro-3-(2-fluoro-4-iodo-phenylamino)-furo[3,2-c]pyridin-2-yl]-((R)-3-hydroxy-pyrrolidin-1-yl)-methanone] gave an EC50 [1] of less than 10 µM.
Work on `O=C(c1oc2c(F)cncc2c1Nc1ccc(I)cc1F)N1C[C@H](O)[C@@H](O)C1` [Example 158, ((3S,4S)-3,4-Dihydroxy-pyrrolidin-1-yl)-[7-fluoro-3-(2-fluoro-4-iodo-phenylamino)-furo[3,2-c]pyridin-2-yl]-methanone] yielded an EC50 [1] of less than 10 µM.
Work on `O=C(NOC[C@H](O)CO)c1oc2c(F)cncc2c1Nc1ccc(I)cc1F` [Example 159, 7-Fluoro-3-(2-fluoro-4-iodo-phenylamino)-furo[3,2-c]pyridine-2-carboxylic acid ((R)-2,3-dihydroxy-propoxy)-amide] yielded an EC50 [1] of less than 10 µM.
